The assay addresses β-galactosidase LacZ from L. bulgaricus (nontagged) (Lactobacillus delbrueckii, UniProt Q1G9Z4). As to the kind of experiment: inhibition of oNPG hydrolysis, nonlinear regression. The format is biochemical. The following applies: read-out: nontagged LacZ; substrate oNPG; 50 mM sodium phosphate, pH 6.5, 30 °C; competitive.

The structures appear in SMILES notation.

Sequence of β-galactosidase LacZ from L. bulgaricus (nontagged) (Q1G9Z4 2-1008): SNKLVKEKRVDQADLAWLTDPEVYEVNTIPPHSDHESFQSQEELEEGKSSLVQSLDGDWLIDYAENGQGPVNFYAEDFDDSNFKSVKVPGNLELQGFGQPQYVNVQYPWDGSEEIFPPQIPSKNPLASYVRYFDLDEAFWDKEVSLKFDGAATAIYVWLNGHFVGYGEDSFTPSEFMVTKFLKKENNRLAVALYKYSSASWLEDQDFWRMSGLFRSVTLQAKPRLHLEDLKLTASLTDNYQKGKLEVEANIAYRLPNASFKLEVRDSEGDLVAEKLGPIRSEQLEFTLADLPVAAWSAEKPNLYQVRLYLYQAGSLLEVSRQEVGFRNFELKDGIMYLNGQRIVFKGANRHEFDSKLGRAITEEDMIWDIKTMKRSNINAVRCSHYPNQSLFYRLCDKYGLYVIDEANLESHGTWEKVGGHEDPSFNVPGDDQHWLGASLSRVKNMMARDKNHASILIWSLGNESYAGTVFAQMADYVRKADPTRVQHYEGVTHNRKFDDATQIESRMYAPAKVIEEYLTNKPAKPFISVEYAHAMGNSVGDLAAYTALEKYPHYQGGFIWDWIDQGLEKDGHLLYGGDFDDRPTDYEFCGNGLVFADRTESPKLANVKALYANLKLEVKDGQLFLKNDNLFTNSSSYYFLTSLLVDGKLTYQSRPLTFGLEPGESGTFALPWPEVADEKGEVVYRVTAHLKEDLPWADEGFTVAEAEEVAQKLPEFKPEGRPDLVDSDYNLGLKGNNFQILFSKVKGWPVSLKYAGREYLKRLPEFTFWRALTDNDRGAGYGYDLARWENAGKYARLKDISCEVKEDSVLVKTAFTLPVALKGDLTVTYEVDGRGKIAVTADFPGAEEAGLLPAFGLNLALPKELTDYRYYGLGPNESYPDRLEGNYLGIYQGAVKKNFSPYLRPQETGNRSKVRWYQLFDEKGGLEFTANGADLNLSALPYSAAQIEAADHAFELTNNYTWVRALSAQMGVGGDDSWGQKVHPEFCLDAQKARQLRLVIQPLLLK

Consider `OC[C@H]1OC(O)[C@H](O)[C@@H](O)[C@H]1O` (stereo partly drawn) [D-galactose], for which the Ki turned out to be 9.52 ± 1.54 mM.

For the origin of these results see paper PMC3284191 (Journal of Agricultural and Food Chemistry, 2012).
